According to patent US10695315B2, “Composition comprising avermectin compounds without gelling agents” (Nestlé Skin Health SA, priority 2016, dated 2020):

Assay: Physical stability of the composition over time
Type: physicochemical
Settings: in composition 2, over time (three months, 5° C. and RT)
Method: “Physical stability” means that the composition meets the acceptance criteria for appearance, physical attributes and functionality test (e.g. color, phase separation, dose delivery per actuation).
The table below represents physical stability of the composition 2 according to the invention at 5° C. and room temperature (RT) during three months.

## ivermectin
  Ivermectin solubilized state, crystals formation: remains solubilized over time, no crystals formation
